Measurements from patent US20250135026A1, “Antibody Drug Conjugates” (BeiGene Switzerland GmbH, priority 2021, published 2025).
Read-outs that look alike come from different tables or passages of the source.

Experiments:
Calu-6 = test: Compounds cellular killing (Cell Titer-Glo, 6 days, 2D); type: cell-based; details: for cell-killing activity compared with Dxd: Calu-6
Procedure: (§1) The cell line was grown in a humidified 5% CO2 atmosphere at 37° C., and was regularly tested for the presence of mycoplasma with MycoAlert™ PLUS Mycoplasma Detection Kit (Lonza, LT07-710).
(§2) Incubation at 37° C., 5% CO2, overnight.
(§3) Adding the fresh growth-medium containing the varying concentrations of compounds, 50 ul/well.
(§4) Incubation at 37° C., 5% CO2, 6 days.
(§5) The cell viability detected by Cell Titer-Glo (Promega, G7573). Add 70 µL/well of CellTiter-Glo® Reagent in each well.
(§6) Allow the plates to incubate at room temperature for 10 minutes to stabilize luminescent signal.
(§7) Analyze with Microplate Reader.

A375 = test: as above; type: cell-based, human; details: for cell-killing activity compared with Dxd: A375
Procedure: as §1, §2, §3, §4, §5, §6, §7

HCC1569 = test: Payload cellular killing, 2D; type: cell-based; details: HCC1569, 2D (HER3 +++)
MDA-MB-453 = test: Payload cellular killing, 2D; type: cell-based, human; details: MDA-MB-453, 2D (HER3 +++)
Procedure: as §1

A549 (PTK7 low) = test: Cellular killing on PTK7 cell lines (Cell-Titer-Glo, 7 days); type: cell-based; details: Anti-proliferation
Procedure: (§8) The plates were incubated for 7 days at 37° C., 5% CO2. Next, 50 μL of Cell-Titer-Glo reagent was added to each well. The mixture was mixed on an orbital shaker for 10 mins to allow cell lysis. Then, the luminescent signal was measured using BMG PheraStar with the luminescent protocol. The inhibition of Ovcar3 and A549 cell lines is illustrated in FIG. 22 and FIG. 23, respectively.

Ovcar3 (PTK7 high) = test: as above; type: cell-based; details: Anti-proliferation
Procedure: as §8

[1] = ADC hydrophobicity evaluation by HIC (retention time of DAR8 species); type: physicochemical; details: HIC method with isopropanol in the mobile phase (values marked *, Method 1)
Text: ADC Hydrophobicity Evaluation
ADC with more hydrophobic property would appeared with later retention time from HIC (hydrophobicity interaction column) chromatography. In this invention, […].
The HIC retention time (HIC RT, here only HIC RT of DAR8 species is listed in the table) can be seen as a measure to evaluate ADC's hydrophobicity.

[2] = Table 28, payload, Calu-6, 2D (HER3 neg.)
[3] = Table 29, payload, Clau6, 6d, 2D (Her3 neg)
[4] = Table 28, payload, A375, 2D (Her3 ++)
[5] = Table 29, payload, A375, 6d, 2D (Her3++)
[6] = Homo sapiens, Table 28, payload
[7] = Homo sapiens, Table 28, payload, read-out: Emax

For `CC[C@@]1(O)C(=O)OCc2c1cc1n(c2=O)Cc2c-1nc1cc(F)c(C)c3c1c2[C@@H](NC(=O)C(C)(F)CO)CC3` (single isomer, unassigned) [Example 68], which “cell-killing activity compared with Dxd” value (Calu-6) is on record?
Its value is “less potent than Dxd”.

And the Emax (Calu-6; Homo sapiens, Calu-6, Table 21, Calu-6, read-out: Emax)?
The Emax was 98.5%.

And the EC50 (Calu-6; Table 21, Calu-6)?
Its EC50 is 1.8 nM.

What about the “cell-killing activity compared with Dxd” value (A375) of the same molecule?
Its value is “less potent than Dxd”.

What about the Emax (A375; Homo sapiens, A-375, Table 21, A375, read-out: Emax) of the same molecule?
The Emax was 99.9%.

And the EC50 (A375; Table 21, A375)?
Its EC50 is 4.5 nM.

What does the source list for `CC[C@@]1(O)C(=O)OCc2c1cc1n(c2=O)Cc2c-1nc1cc(F)c(C)c3c1c2[C@@H](NC(=O)C(C)(F)CO)CC3` (single isomer, unassigned) [Example 69]?
cell-killing activity compared with Dxd (Calu-6): stronger cell-killing activity than Dxd; EC50 (Calu-6; Table 21, Calu-6): 0.6 nM; Emax (Calu-6; Table 21, Calu-6): 98.2%; cell-killing activity compared with Dxd (A375): stronger cell-killing activity than Dxd; EC50 (A375; Table 21, A375): 1.5 nM; Emax (A375; Table 21, A375): 99.9%

Which results are given for `CC[C@@]1(O)C(=O)OCc2c1cc1n(c2=O)Cc2c-1nc1cc(F)c(C)c3c1c2[C@@H](NC(=O)C(C)(F)CO)CC3` (single isomer, unassigned) [Isomer 1 of Compounds 68 & 69]?
Emax (HCC1569; Homo sapiens, HCC1569, Table 28, payload, read-out: Emax): 92%; EC50 (HCC1569; Table 28, payload): 3.2 nM; Emax (Calu-6; Homo sapiens, Calu-6, Table 28, payload, Calu-6, 2D (HER3 neg.), read-out: Emax): 98.5%; Emax (Calu-6; Homo sapiens, Calu-6, […], Table 29, payload, Clau6, 6d, 2D (Her3 neg), read-out: Emax): 98.5%; EC50 (Calu-6; [2]): 1.8 nM; EC50 (Calu-6; [3]): 1.8 nM; EC50 (MDA-MB-453; Homo sapiens, MDA-MB-453, Table 28, payload): 2.8 nM; Emax (MDA-MB-453; Homo sapiens, MDA-MB-453, Table 28, payload, read-out: Emax): 97.9%; Emax (A375; Homo sapiens, A-375, Table 29, payload, A375, 6d, 2D (Her3++), read-out: Emax): 99.9%; EC50 (A375; [4]): 4.5 nM; EC50 (A375; [5]): 4.5 nM

Which EC50 (HCC1569; Table 28, payload) does the source give for `CC[C@@]1(O)C(=O)OCc2c1cc1n(c2=O)Cc2c-1nc1cc(F)c(C)c3c1c2[C@@H](NC(=O)C(C)(F)CO)CC3` (single isomer, unassigned) [Isomer 2 of Compounds 68 & 69] here?
The EC50 was 0.7 nM.

What about the Emax (HCC1569; Table 28, payload) of the same molecule?
Its Emax is 91.6%.

And the EC50 (Calu-6; [2])?
The EC50 was 0.6 nM.

And the Emax (Calu-6; [2])?
Its Emax is 98.2%.

What about the EC50 (Calu-6; [3]) of the same molecule?
Its EC50 is 0.6 nM.

What about the Emax (Calu-6; [3]) of the same molecule?
Its Emax is 98.2%.

And the EC50 (MDA-MB-453; Table 28, payload)?
The EC50 was 1.5 nM.

And the Emax (MDA-MB-453; Table 28, payload)?
The Emax was 98.6%.

What about the EC50 (A375; [4]) of the same molecule?
The EC50 was 1.5 nM.

And the Emax (A375; [4])?
The Emax was 99.9%.

And the EC50 (A375; [5])?
The EC50 was 1.5 nM.

And the Emax (A375; [5])?
Its Emax is 99.9%.

For `CCc1c2c(nc3ccc(O)cc13)-c1cc3c(c(=O)n1C2)COC(=O)[C@]3(O)CC` [SN-38, reference compound], which EC50 (HCC1569; [6]) is on record?
The EC50 was 5 nM.

What about the Emax (HCC1569; [7]) of the same molecule?
Its Emax is 95%.

What about the EC50 (Calu-6; Homo sapiens, Calu-6, Table 28, payload, Calu-6, 2D (HER3 neg.)) of the same molecule?
Its EC50 is 2.9 nM.

And the Emax (Calu-6; Homo sapiens, Table 28, payload, Calu-6, 2D (HER3 neg.), read-out: Emax)?
Its Emax is 99.5%.

What about the EC50 (MDA-MB-453; [6]) of the same molecule?
Its EC50 is 2.4 nM.

And the Emax (MDA-MB-453; [7])?
The Emax was 98.6%.

And the EC50 (A375; Homo sapiens, A-375, Table 28, payload, A375, 2D (Her3 ++))?
Its EC50 is 3.4 nM.

And the Emax (A375; Homo sapiens, A-375, Table 28, payload, A375, 2D (Her3 ++), read-out: Emax)?
The Emax was 99.9%.

B1: ADC1-4: antibody: Cofetuzumab (conjugate, chains of the INN, looked up)
VH: QVQLVQSGPEVKKPGASVKVSCKASGYTFTDYAVHWVRQAPGKRLEWIGVISTYNDYTYNNQDFKGRVTMTRDTSASTAYMELSRLRSEDTAVYYCARGNSYFYALDYWGQGTSVTVSS
VL: EIVLTQSPATLSLSPGERATLSCRASESVDSYGKSFMHWYQQKPGQAPRLLIYRASNLESGIPARFSGSGSGTDFTLTISSLEPEDFAVYYCQQSNEDPWTFGGGTKLEIK
modifications: drug conjugate
notes: antibody: Cofetuzumab
With B1 as the molecule, how does the Emax (A549 (PTK7 low)) read?
The Emax was 20.12%.

What about the IC50 (A549 (PTK7 low)) of the same molecule?
The IC50 was greater than 200 nM.

What about the Emax (Ovcar3 (PTK7 high)) of the same molecule?
The Emax was 93.45%.

And the IC50 (Ovcar3 (PTK7 high))?
Its IC50 is 0.32 nM.

And the “HIC DAR8 RT” value [1]?
The value was 14.50* min.

B2: ADC1-11: antibody: Cofetuzumab (conjugate, chains of the INN, looked up)
VH: B1 VH
VL: B1 VL
modifications: drug conjugate
notes: antibody: Cofetuzumab
Which Emax (A549 (PTK7 low)) does the source give for B2 here?
The Emax was 26.44%.

What about the IC50 (A549 (PTK7 low)) of the same molecule?
The IC50 was greater than 200 nM.

And the Emax (Ovcar3 (PTK7 high))?
The Emax was 100.9%.

And the IC50 (Ovcar3 (PTK7 high))?
The IC50 was 2.1 nM.

And the “HIC DAR8 RT” value [1]?
The value was 14.77* min.

B3: ADC1-12: antibody: Cofetuzumab; "ADC Compounds used references" (conjugate, chains of the INN, looked up)
VH: B1 VH
VL: B1 VL
modifications: drug conjugate
Which Emax (A549 (PTK7 low)) does the source give for B3 here?
The Emax was 5.76%.

What about the IC50 (A549 (PTK7 low)) of the same molecule?
The IC50 was greater than 200 nM.

What about the Emax (Ovcar3 (PTK7 high)) of the same molecule?
The Emax was 86.04%.

And the IC50 (Ovcar3 (PTK7 high))?
Its IC50 is 39.4 nM.

What about the “HIC DAR8 RT” value [1] of the same molecule?
Its value is 13.98* min.

B4: ADC1-2: antibody: Cofetuzumab (conjugate, chains of the INN, looked up)
VH: B1 VH
VL: B1 VL
modifications: drug conjugate
notes: antibody: Cofetuzumab
With B4 as the molecule, how does the Emax (A549 (PTK7 low)) read?
Its Emax is 34.22%.

What about the IC50 (A549 (PTK7 low)) of the same molecule?
The IC50 was greater than 200 nM.

What about the Emax (Ovcar3 (PTK7 high)) of the same molecule?
Its Emax is 93.47%.

And the IC50 (Ovcar3 (PTK7 high))?
The IC50 was 0.23 nM.

And the “HIC DAR8 RT” value [1]?
Its value is 14.67* min.
